Experiment: Binding affinity to BTN3A1 in human PBMC-derived Vgamma9/Vdelta2 T cells assessed as induction of Vgamma9Vdelta2 T cells proliferation incubated for 3 days by gamma delta TCR/PE-CD3+ antibody staining based FACS analysis

CC(C)=CCCP(=O)(O)O and CCOC(=O)CNP(=O)(CCC=C(C)C)Oc1cccc2ccccc12 (stereo not given) cannot be ordered by EC50: greater than 100000 nM for the first, greater than 100000 nM for the second.

Going from COC(=O)CNP(=O)(CC/C=C(\C)C=O)Oc1ccccc1 (stereo not given) to CCOC(=O)CNP(=O)(CC/C=C(\C)C=O)Oc1ccccc1 (stereo not given), the EC50 falls from 47 nM to 20 nM (2.4-fold).

First: C/C(C=O)=C\CCP(=O)(OCOC(=O)C(C)(C)C)Oc1ccc2ccc(=O)oc2c1 (stereo not given)
Second: C/C(=C\CCP(=O)(OCOC(=O)C(C)(C)C)Oc1ccc2ccc(=O)oc2c1)CO (stereo not given)
The EC50 of the first is 1.5-fold higher: 12 nM for the first, 8 nM for the second.

Going from C/C(C=O)=C\CCP(=O)(NCC(=O)OC(C)C)Oc1ccccc1 (stereo not given) to CCOC(=O)CNP(=O)(CC/C=C(C)/C=N/O)Oc1ccccc1 (stereo not given), the EC50 rises from 49 nM to 790 nM (16-fold). The first is the more potent here.

First: C/C(C=O)=C\CCP(=O)(OCOC(=O)C(C)(C)C)Oc1ccc2ccccc2c1 (stereo not given)
Second: C/C(C=O)=C\CCP(=O)(OCOC(=O)C(C)(C)C)OCOC(=O)C(C)(C)C
The EC50 of the first is 10-fold lower: 4.6 nM for the first, 47 nM for the second. The first is the more potent here.
